Assay results taken from US20230398123A1, “METHODS TO TREAT INFLAMMATORY BOWEL DISEASE” (SHANGHAI PHARMACEUTICALS HOLDING CO., LTD., priority 2021, published 2023).
“Also recorded” adds a separate entry of the source. Where two headings read alike, the source gives them in different places.

How the values were obtained:
IL-6 = IL-6 release from human ulcerative colitis colon mucosal biopsies (SEB-stimulated, multiplex ELISA); type: cell-based; details: about 18 hours, 50 ng/mL SEB
[1] = system: DNBS-induced colitis in Wistar rats; test: DNBS-induced colitis in Wistar rats; type: in vivo; details: day 1-7
[2] = system: TNBS-induced colitis in C57BL/6 mice; test: TNBS-induced colitis in C57BL/6 mice, macroscopic and microscopic colon observations; type: in vivo; details: for histology of colon sections (H&E): day 3 after TNBS instillation (FIG. 5B)
Excerpt: Colitis was induced in C57BL/6 mice by instillation of trinitrobenzene sulfonic acid (TNBS) in the colons according to conventional methods. See Antoniou, et al., Ann. Medicine and Surgery, vol. 11, 9-15 (2016).
FIGS. 5A-B show histological observations of colon sections from C57BL/6 mice. All animals were sacrificed on day 3 after the TNBS instillation to induce colitis as described above, and tissues are visualized by H&E (hematoxylin and eosin) staining.
The second panel in FIG. 5B is tissue from a colon instilled with TNBS and treated with 10 mg/kg SPH-X twice daily, administered intraperitoneally.

TNF-α [3] = test: Western blot of TNF-α protein in mucosal lysates, TNBS colitis mice; type: in vivo; details: 10 mg/kg twice daily for three days, listed as SPH-X
Procedure: To assess the effect of SPH-X in this model at the molecular level, colitis was again induced in mice by TNBS instillation (three per treatment group), using ethanol as a control. Test animals were treated with either vehicle (PBS) or SPH-X (10 mg/kg i.p., twice daily) for three days following the TNBS injury and were then sacrificed. Colonic mucosa were isolated from each test animal and used to prepare mRNA. The mRNA was reverse transcribed to provide cDNAs.
Finally, mucosal lysates from test animals treated as described for the cytokine analysis were prepared and analyzed by Western blot to see how SPH-X affects TNF-α protein levels in the colitis model.

IL-17A = IL-17A release from human ulcerative colitis colon mucosal biopsies (multiplex ELISA); type: cell-based; details: some UC patients; 10-300 nM
TNF-α [4] = test: TNF-α release from human ulcerative colitis colon mucosal biopsies (multiplex ELISA); type: cell-based; details: some UC patients; 10-300 nM
[5] = Tekturna (aliskiren) label; cited from earlier work
[6] = system: TNBS-induced colitis in RenTgMK mice; details: TNBS instillation, aliskiren by intraperitoneal injection; cited from earlier work
Bioavailability in rats = details: rat, in vivo, oral
[7] = Bioavailability in monkeys; details: monkey, in vivo, oral
[8] = UC Donor C, Formula (I) malate salt 10-300 nM, Birb 796 1 μM

SMILES: Cc1ccc(-n2nc(C(C)(C)C)cc2NC(=O)Nc2ccc(OCCN3CCOCC3)c3ccccc23)cc1 [Birb 796, reference compound]
- IL-6 production (IL-6; [8]): reduction of IL-6

SMILES: COC(=O)NCCCn1nc([C@@H](C)N(C(=O)C2CNCCO2)C2CC2)c2ccc(C)nc21.O=C(O)C[C@H](O)C(=O)O (stereo partly drawn) [Formula I malate salt]
- colon length ([1]; 30 mg/kg q.d. p.o.): significantly increased colon length
- histology of colon sections (H&E) ([2]; 5 mg/kg BID, listed as SPH-X): substantially prevents or treats any injury caused by TNBS instillation; also recorded: treats or prevents such damage
- interior of colons dissected longitudinally (bleeding at the distal ends) ([2]; 10 mg/kg intraperitoneally after TNBS instillation (FIG. 4B)): do not show such damage
- histology of colon sections (H&E) ([2]; 10 mg/kg twice daily intraperitoneally, listed as SPH-X): substantially protects the colon from injury caused by TNBS; also recorded: treats or prevents such damage
- gross morphology of colons ([2]; 20 mg/kg BID intraperitoneal, 7 days after TNBS instillation (FIG. 4A), listed as SPH-X): appear more normal; also recorded: substantially reverses damage caused by TNBS
- TNF-α protein level (Western blot) (TNF-α [3]): no TNF-α protein was seen; also recorded: reduces or stops formation of TNF-α
- IL-6 production (IL-6; [8]): does not show reduction in IL-6
- IL-6 production (IL-6; UC Donors A and B, 10-300 nM): significant dose-related decreases
- release of IL-17A (IL-17A): dose-related reductions
- release of tumor necrosis factor alpha (TNF-α) (TNF-α [4]): dose-related reductions

SMILES: C[C@@H]1CCN(C(=O)CC#N)C[C@@H]1N(C)c1ncnc2[nH]ccc12 [Tofacitinib]
- CW/BW ratio improved by ([1]; 30 mg/kg BID p.o.): 9%
- CW/CL ratio improved by ([1]; 30 mg/kg BID p.o.): 37%
- CW/CL/BW ratio improved by ([1]; 30 mg/kg BID p.o.): 14%

SMILES: COCCCOc1cc(C[C@@H](C[C@H](N)[C@@H](O)C[C@H](C(=O)NCC(C)(C)C(N)=O)C(C)C)C(C)C)ccc1OC [aliskiren]
- bioavailability [5]: 2.5%
- effect on induced colitis [6]: ameliorated this induced colitis

SMILES: COC(=O)NCCCn1nc([C@@H](C)N(C(=O)C2CNCCO2)C2CC2)c2ccc(C)nc21 (stereo partly drawn) [Formula (I)]
- bioavailability (Bioavailability in rats): 11.5 to 24.5%
- bioavailability [7]: 3.3 to 11.3%
